Test results: PMC5571359, “Screening the Medicines for Malaria Venture Pathogen Box across Multiple Pathogens Reclassifies Starting Points for Open-Source Drug Discovery” (Antimicrobial Agents and Chemotherapy, 2017)
Read-outs that look alike come from different tables or passages of the source.

Legend:
[1] = test system: liver stage; conditions: cited from earlier work
[2] = test system: NF54-pfs16-LUC-GFP stage IV gametocytes; experiment: Plasmodium falciparum late stage gametocyte (LSG) image-based assay; type: cell-based; conditions: for IC50: Plasmodium falciparum
[3] = test system: P. falciparum stage V gametocytes; conditions: cited from earlier work; for activity against gametocytes (stage V), PBox supporting information: ref Pbox supporting information; for IC50: read-out: PF stage V GAMS PBox IC50
[4] = test system: P. falciparum ABS; conditions: cited from earlier work; for EC50: ChEMBL Data
[5] = test system: Plasmodium falciparum 3D7 asexual blood stage; experiment: microbe, parasite or virus in culture
[6] = test system: HEK293 cells; experiment: HEK293 resazurin cell cytotoxicity assay; conditions: Homo sapiens
[7] = test system: HepG2; conditions: cited from earlier work; for CC50: read-out: HepG2 PBox CC50 µM
[8] = test system: T. b. brucei 427 bloodstream trypanosomes; experiment: T. b. brucei resazurin viability assay; type: cell-based, Trypanosoma brucei brucei; conditions: Trypanosoma brucei; read-out: T b.brucei Discovery Biology IC50
[9] = test system: T. cruzi intracellular amastigotes; experiment: Intracellular anti-Trypanosoma cruzi image-based assay (amastigotes); type: cell-based
[10] = test system: T. cruzi C4 β-galactosidase reporter parasite in MRC 5SV2 host cells; conditions: cited from earlier work
[11] = test system: L. infanium (macrophages); design: method as in Pbox supporting information; conditions: ref Pbox supporting information; cited from earlier work
[12] = test system: T. brucei brucei; conditions: ref Pbox supporting information; read-out: T.b. brucei Pbox IC50; cited from earlier work
[13] = test system: T. brucei rhodesiense; conditions: ref Pbox supporting information; read-out: T .b. rohdensie Pbox IC50; cited from earlier work
[14] = test system: L. donovani MHOM/IN/80/DD8 intracellular amastigotes; experiment: Leishmania donovani intracellular amastigote assay in THP-1 cells; type: cell-based; conditions: Leishmania donovani, THP-1, intracellular amastigotes
[15] = ref Pbox supporting information
[16] = NF54, read-out: Pf Stage IV GAMS Discovery Biology IC50 µM, stage IV gametocytes
[17] = stage V gametocytes, ref PBox supporting information
[18] = P. falciparum 3D7, ref PBox supporting information, read-out: Pf 3D7 Pbox IC50
[19] = 3D7, read-out: Pf 3D7 Discovery Biology IC50 µM, P. falciparum 3D7 asexual blood stage
[20] = HEK293, read-out: HEK % Inhibition 20uM/IC50 Discovery Biology (IA)
[21] = ref PBox supporting information
[22] = NF54, read-out: Pf Stage IV GAMS Discovery Biology IC50 µM, stage IV gametocytes, Discovery Biology
[23] = stage V gametocytes, ref Pathogen Box supporting information
[24] = TCMDC, read-out: TCMDC (ref 93) EX50
[25] = Pf 3D7, ref Pathogen Box supporting information, read-out: Pf 3D7 Pbox IC50
[26] = 3D7, read-out: Pf 3D7 Discovery Biology IC50 µM, P. falciparum 3D7 asexual blood stage, Discovery Biology
[27] = HEK293, read-out: HEK % Inhibition 20uM/IC50 Discovery Biology
[28] = ref Pbox supporting information, read-out: T. cruzi Pbox IC50

## O=C(NCCN1CCCC1)c1cc(NCCN2CCOCC2)nc2ccc(Cl)cc12 [MMV634140]
[1]; [15]
  LIVER STAGE Pbox IC50 µM: KTBA
[2]; [16]
  IC50: 0.39 µM
[3]; [17]
  PF stage V GAMS PBox IC50 µM: KTBA
[4]; [18]
  IC50: 100 nM
[5]; [19]
  IC50: 0.09 µM
[6]; [20]
  IC50: > 20000 nM

## Cc1cc(Nc2ccc(C(F)(F)F)cc2)n2ccnc2n1 [MMV011229]
[1]; [15]
  activity against liver stage, PBox supporting information: ktba
[2]
  activity in the Discovery Biology stage IV gametocyte (LSG) assay: did not find this compound to be active
[3]
  activity against gametocytes (stage V), PBox supporting information: ktba
[4]; ref Pbox supporting information, read-out: ABS activity, PBox supporting information
  IC50: 380 nM

## c1ccc(-c2cc(N3CCCCC3)c3ccccc3n2)nc1 [MMV560185]
[1]; [15]
  IC50: 9700 nM
[2]
  activity in the Discovery Biology stage IV gametocyte (LSG) assay: demonstrate activity
[2]; [16]
  IC50: 0.71 µM
[3]
  activity against gametocytes (stage V), PBox supporting information: demonstrate activity
[3]; [17]
  IC50: 510 nM
[4]; [18]
  IC50: > 2000 nM
[6]; [20]
  IC50: > 20000 nM
[7]; [21]
  CC50: > 10 µM

## N#Cc1ccc(-c2cnc(N)c(-c3ccc(C(N)=O)cc3)n2)cc1 [MMV085499]
[1]; [15]
  IC50: 280 nM
[2]; [16]
  IC50: 0.55 µM
[3]; [17]
  IC50: 140 nM
[4]; P. falciparum, read-out: NITD (ref 94) EC50
  EC50: 60 nM
[4]; [18]
  IC50: 95 nM
[5]; [19]
  IC50: 0.19 µM
[6]; [20]
  IC50: > 20000 nM
[7]; [21]
  CC50: > 10 µM

## CCN(CC)S(=O)(=O)c1ccc(Cl)c(C(=O)Nc2ccc3nc(C)sc3c2)c1 [MMV019721]
[1]; liver stage, ref Pathogen Box supporting information, read-out: LIVER STAGE Pbox IC50
  IC50: 1310 nM
[2]; [22]
  IC50: 0.79 µM
[3]; [23]
  IC50: 3910 nM
[4]; [24]
  EC50: 800 nM
[4]; [25]
  IC50: 500 nM
[5]; [26]
  IC50: 0.78 µM
[7]; HepG2 CC50, ref Pathogen Box supporting information
  CC50: > 10 µM

## Nc1nccc2ccc(-c3ccc4nccn4c3)cc12 [MMV023233]
[2]
  activity in the Discovery Biology stage IV gametocyte (LSG) assay: demonstrate activity
[2]; [22]
  IC50: 3.08 µM
[3]
  activity against gametocytes (stage V), PBox supporting information: demonstrate activity
[3]; [23]
  IC50: 400 nM
[4]; [24]
  EC50: 100 nM
[4]; [25]
  IC50: 160 nM
[5]; [26]
  IC50: 0.11 µM
[6]; [27]
  inhibition at 20 µM: 74%
[8]
  IC50: 3290 nM

## O=C(Nc1ccc(F)c(-c2nc3cc(-c4ccccc4)cnc3[nH]2)c1)N1CCCC1 [MMV688372]
[9]; Trypanosoma cruzi, intracellular amastigotes, read-out: T cruzi Discovery Biology IC50
  IC50: 190 nM
[10]; [28]
  IC50: < 130 nM
[11]
  IC50: 160 nM
[12]
  IC50: < 130 nM
[13]
  IC50: < 130 nM
[6]; HEK293, read-out: HEK % Discovery Biology IC50
  IC50: 4600 nM
[8]
  IC50: 20 nM
[14]; PBox compounds, read-out: IC50 L. donovani (Discovery Biology)
  IC50: 1150 nM
[14]; some values marked *, read-out: L, donovani Discovery Biology IC50
  IC50: 1510 nM

## CCn1ncc2c(NC3CCOCC3)c(CNC(=O)c3ccnn3C)c(C)nc21 [MMV026356]
[1]; [15]
  IC50: 1600 nM
[2]; [16]
  IC50: 0.74 µM
[3]; [17]
  IC50: 240 nM
[4]; P. falciparum, read-out: TCMDC (ref 93) EX50
  EC50: 530 nM
[4]; [18]
  IC50: 280 nM
[5]; [19]
  IC50: 0.27 µM
[6]; [20]
  IC50: > 20000 nM
[7]; [21]
  CC50: > 10 µM

## COc1cccc(CC(=O)N2CCC(n3c(C)nc4ccc(F)cc43)CC2)c1 [MMV020081]
[2]
  activity in the Discovery Biology stage IV gametocyte (LSG) assay: demonstrate activity
[2]; [22]
  IC50: 0.68 µM
[3]
  activity against gametocytes (stage V), PBox supporting information: demonstrate activity
[3]; [23]
  IC50: 310 nM
[4]; [24]
  EC50: 910 nM
[4]; [25]
  IC50: 240 nM
[5]; [26]
  IC50: 0.21 µM

## N=C(N)Nc1ccc(-c2ccc(-c3ccc(NC(=N)N)cc3Cl)o2)c(Cl)c1 [MMV688179]
[9]
  activity against T. cruzi in the Discovery Biology assay: lack of activity
[9]; 8 μM
  activity against T. cruzi at 8 μM in the Discovery Biology assay: no activity
[10]; 7 days exposure, ref PBox supporting information, read-out: T. cruzi IC50 in the PBox supporting information file
  IC50: < 1000 nM
[10]; [28]
  IC50: 290 nM
[11]
  IC50: 1010 nM
[2]; NF54, read-out: Pf Stage IV GAMS Discovery Biology IC50, stage IV gametocytes
  IC50: 4.1 µM
[12]
  IC50: 1030 nM
[13]
  IC50: 230 nM
[5]; 3D7, read-out: Antiplasmodial IC50 (ABS), PBox compounds, P. falciparum 3D7
  IC50: 0.59 µM
[6]; [27]
  IC50: > 20000 nM
[8]
  IC50: 5680 nM
[7]; HepG2, ref PBox supporting information
  HepG2 PBox CC20: 6800 nM

## Cc1cc(C)nc(-n2nc(C)cc2Nc2ccccc2)n1 [MMV062221]
[2]
  activity in the Discovery Biology stage IV gametocyte (LSG) assay: demonstrate activity
[2]; [16]
  IC50: 0.57 µM
[3]
  activity against gametocytes (stage V), PBox supporting information: demonstrate activity
[3]; [17]
  IC50: 220 nM
[4]; [18]
  IC50: > 2000 nM
[6]; [20]
  IC50: > 20000 nM
